Data on four molecules can be found in ChEMBL document CHEMBL1132326, “Synthesis and dopamine receptor modulating activity of substituted bicyclic thiazolidine lactam peptidomimetics of L-prolyl-L-leucyl-glycinamide” (1999).

The test system of assay [1] is Rattus norvegicus. The assay is described as follows: Effect on rotational behavior in rat after i.p. administration of 1 ug/kg. Type of assay: functional.
The test system of assay [2] is Rattus norvegicus. The assay is described as follows: Effect on rotational behavior in rat after i.p. administration of 0.1 ug/kg. Type of assay: functional.

`NC(=O)[C@H]1CS[C@@H]2C[C@@](Cc3ccccc3)(NC(=O)[C@@H]3CCCN3)C(=O)N12` had an Increase in the assay on Rattus norvegicus [1] of 30%.

Turning to `CC(C)C[C@@]1(NC(=O)[C@@H]2CCCN2)C[C@H]2SC[C@H](C(N)=O)N2C1=O`, the Increase in the assay on Rattus norvegicus [1] is recorded as 44%. Consider `NC(=O)[C@H]1CS[C@@H]2C[C@@H](NC(=O)[C@@H]3CCCN3)C(=O)N12`, for which the Increase with Rattus norvegicus [2] came to 23%. The molecule `CCCC[C@@]1(NC(=O)[C@@H]2CCCN2)C[C@H]2SC[C@H](C(N)=O)N2C1=O` displayed an Increase in the assay with Rattus norvegicus [2] of 56%.
